Test results reported in patent publication US6949521B2, “Therapeutic azide compounds” (priority 1995, dated 2005).
“Also recorded” adds a separate entry of the source. One block for each compound: values may come before it.

Assays:
in vivo [1] = settings: for AUC: AUC0-τ; for half-life: t½
Description: Animal studies. […] Animal studies were approved by the University of Georgia Animal Care and Use Committee and conducted in accordance with guidelines established by the Animal Welfare Act and the National Institutes of Health Guide for the Care and Use of Laboratory Animals. […] Animals were acclimatized to this environment for one week prior to the experiments.
At selected time intervals, mice (three animals per each time point) were anesthetized with diethyl ether and sacrificed by exsanguination via left ventricular heart puncture. Serum was harvested from blood collected. The brain was excised, rinsed with normal saline, blotted dry and weighed.
Analytical Methodology. […] The brain or liver tissue were homogenized in a 1:1 (g:mL) ratio with ice cold isotonic 0.05 M phosphate buffer, pH 7.4. […] Acetonitrile (600 μL) containing 0.1% acetic acid was added while vortexing to precipitate proteins. The tubes were centrifuged at 3,000 rpm for five minutes and the supernatant was transferred to a clean tube. Supernatant was evaporated to dryness under a stream of nitrogen gas at room temperature. The residual film was reconstituted in 110 μL of mobile phase and 50 μL was injected onto the HPLC.
Chromatographic separations were performed using a Hypersil ODS column 150×4.5 mm, 5 μm particle size (Alltech Associates, Deerfield, Ill.) preceded by a guard column packed with 30-40 μm pellicular Perisorb RP-18. Mobile phase flow rate was 2 mL/min. For the analysis of FAAddP and 2′-F-ara-ddA, the mobile phase consisted of 7% (v/v) acetonitrile in 80 mM sodium acetate, pH 5.0. […] Eluants were monitored at a UV wavelength of 260 nm.
Nucleoside standards ranging from 0.04 μg/mL to 100 μg/mL, prepared in blank PBS, serum, brain homogenate and liver homogenate were treated the same as unknown samples. Samples with nucleoside concentrations greater than 100 μg/mL were diluted with the appropriate blank matrix.
Data analysis in vivo studies. Nucleoside concentration as a function of time data were analyzed by a non-compartmental technique. […] Relative brain exposure (re) was calculated from AUCbrain/AUCserum.

HIV-1 = settings: relative to parent compounds ddA, ddI; cited from earlier work
[2] = mice; after oral and intravenous prodrug 2′-F-ara-ddP administration; cited from earlier work
[3] = in vivo; cited from earlier work
[4] = test system: microsomal fraction of the human liver homogenate; test: Azido reduction assay
Experimental: Briefly, incubation mixtures contained either 1.5 mg of human liver fraction protein (homogenate or supernatant fractions following centrifugation) or 1.5 mg microsomal protein, 5.0 mM MgCl2, 6.0 mM NADPH and 0.4 mg/mL of 6-AAP in 0.1 M phosphate buffer saline at pH 7.4 (final volume of 0.2 mL). The reaction was initiated by adding NADPH and conducted at 37° C. for 60 minutes under nitrogen. Reactions were terminated by heating at 100° C. for 30 seconds and the proteins were removed by centrifugation at 14,000 g for six minutes. Aliquots (100 μL) were then analyzed for nucleosides by HPLC. Control incubations were performed in the absence of protein.
Inhibition of azido reduction assay: Assays were performed using 1.5 mg microsomal protein as described above following either a 45 second exposure to carbon monoxide or a 5 minute pre-incubation with 1 mM metyrapone prior to the addition of NADPH.

[5] = In vivo pharmacokinetics of 6-AAP and ara-A in mice (serum and brain)
Experimental: (§2) Analysis. […] All the solvents were of HPLC grade. Chromatography was performed on an Altech Hypersil ODS C18 (5 μm particle size, 4.5×150 mm, Altech Associates, Deerfield, Ill.).
(§3) In vivo pharmacokinetics: Female NIH Swiss mice (Harland Sprague-Dawley, Indianapolis, Ind.) weighing 24-28 g were used for the pharmacokinetic experiments.
(§4) At least three animals each were sacrificed at 0.08, 0.025, 0.5, 0.75, 1.0, 2.0, 3.0, 4.0, 5.0 and 6.0 hours after drug administration. Blood (serum) from the heart and whole-brain samples were collected. Serum samples were treated immediately and brain samples were frozen at −20° C. until analysis. To determine the nucleoside concentrations in the serum, a know amount of serum sample, 50 μL of the internal standard (AzdU, 5 μg/mL) and 1.0 mL of acetonitrile as a protein precipitant were added to polypropylene microcentrifuge tubes (1.7 mL). Tubes were mixed and centrifuged at 9,000 rpm for 10 minutes.
(§5) After homogenization, 1.8 mL of acetonitrile was added to tissue homogenates, samples were mixed and centrifuged at 9,000 rpm for 10 minutes. The resulting supernatant from the serum or the brain was transferred to a clean tube and dried under a stream of nitrogen gas at 22° C. The residue was reconstituted in 220 μL of mobile phase D and after centrifugation at 12,000 rpm for 40 min, 100-150 μL was injected for the HPLC analysis. […] After each assay, the column was equilibrated to initial conditions for 7 minutes.
(§6) The area under concentration (AUC) versus time profiles from time zero to the last measured concentration were determined by the linear trapezoidal rule and the AUC from the time of the last measured concentration to infinity was determined by dividing the last determined concentration by the least-squares elimination rate constant (λZ). […] The relative tissue exposure (re) of the compounds was calculated from AUCTissue/AUCserum.

adenosine deaminase = target: T1, adenosine deaminase (Bos taurus, UniProt P56658); test: Adenosine deaminase study of 6-AAP; format: biochemical, calf; settings: phosphate buffer pH 7.4, 25° C., up to three hours
T1 construct: Type II crude powder from calf intestinal mucosa; purchased Sigma chemical Co., St. Louis, Mo; Type II crude powder; host or cells: calf intestinal mucosa
T1 sequence (P56658 1-363): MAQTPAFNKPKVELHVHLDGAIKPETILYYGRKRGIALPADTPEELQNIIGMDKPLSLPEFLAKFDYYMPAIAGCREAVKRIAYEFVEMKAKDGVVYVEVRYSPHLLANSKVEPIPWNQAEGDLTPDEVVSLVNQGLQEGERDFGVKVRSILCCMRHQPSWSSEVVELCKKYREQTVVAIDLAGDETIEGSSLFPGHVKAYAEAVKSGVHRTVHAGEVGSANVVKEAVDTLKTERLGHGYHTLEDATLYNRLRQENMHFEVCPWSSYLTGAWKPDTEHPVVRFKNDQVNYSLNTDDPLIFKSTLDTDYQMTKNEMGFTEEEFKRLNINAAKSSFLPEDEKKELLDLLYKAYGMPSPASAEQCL
Experimental: (§1) The stability of 6-AAP at pH 2, 7 and 11 and towards adenosine deaminase hydrolysis was studied by UV spectroscopy.
Materials: Melting points were determined on a Mel-Temp II laboratory device and are uncorrected. The ^1H NMR spectra were recorded on a JEOL FX 90 Q FT spectrophotometer, with TMS as the internal standard; chemical shifts are reported in parts per million (δ), and the signals are quoted as s (singlet), d (doublet), t (triplet) or m (multiplet). UV spectra are recorded on a Beckman DU-650 spectrophotometer. TLC was performed on Uniplates (silica gel) purchased from Analtech Co. Elemental analysis was performed by Atlantic Microlab, Inc., Norcross, Ga. Ara-A and Adenosine deaminase (Type II crude powder from calf intestinal mucosa, 1-5 units/mg activity) was purchased from Sigma chemical Co., St. Louis, Mo. All other chemicals are of reagent grade. Methanol and acetonitrile, methyl sulfoxide were purchased from EM Science, Gibbstown, N.J.
Adenosine deaminase studies.

in vitro = settings: female, NIH Swiss, mouse
Experimental: (§7) All the solvents were of HPLC grade. Chromatography was performed on an Altech Hypersil ODS C18 (5 μm particle size, 4.5×150 mm, Altech Associates, Deerfield, Ill.).
(§8) In vitro metabolism study. Female NIH Swiss mice (Harland Sprague-Dawley, Indianapolis, Ind.) were sacrificed and serum, liver and brain tissues were collected before each experiment. Serum was collected from several animals. The brain and liver were washed in normal saline at 4° C., wiped and then weighed. […] Samples and blanks of volume 400 μL were collected at 0, 5, 15, and 30 minutes and at 1, 2, 3, 4 and 5 hours.
(§9) To measure the analyte concentrations in serum, liver or brain homogenate, 400 μL of sample was mixed with 50 μL of internal standard (AzdU, 5 μg/mL) and 0.7 mL of acetonitrile. After centrifugation, the supernatant was decanted to another tube and treated with anhydrous Na2SO4, then vortexed for one minute and centrifuged again. The organic layer was separated and evaporated under nitrogen stream at room temperature. The residue was reconstituted in mobile phase A and filtered through MPS-I micropartition system (3KD membranes (Amicon Inc., Beverly, Mass.) by centrifugation for 50 minutes at 2000 rpm to further clean-up the samples. 100 μL of filtrate was injected for analysis.

[6] = Stability of 6-AAP at pH 2, 7 and 11 by UV spectroscopy; format: physicochemical; settings: 37° C.
Experimental: as §1
Stability studies of 6AAP. A kinetic study at varying pHs (pH 2, 7 and 11 at 37.1° C.) was performed on a UV spectrophotometer to investigate the stability of 6-AAP. […] At pH 2, the compound was stable.

in vivo [7] = settings: female, NIH Swiss, mouse; for Kp: brain
Experimental: as §2, §3, §4, §5, §6

[8] = In vitro metabolism study of 6-AAP and ara-A in mouse liver homogenate, serum and brain homogenate
Experimental: as §7, §8, §9

[9] = mouse, in vivo, iv, 100 mg/kg
Experimental: as §2, §3, §4, §5, §6

[10] = in vivo; cited from earlier work; remark: listed apart in the source
[11] = female, NIH-Swiss, mouse, in vivo, iv, 55 mg/kg
[12] = female, NIH-Swiss, mouse, in vivo, po, 55 mg/kg
[13] = female, NIH-Swiss, mouse, in vivo, iv, 20 mg/kg
[14] = female, NIH-Swiss, mouse, in vivo, iv, 112 mg/kg
[15] = after 6-AAP 100 mg/kg iv, brain
[16] = after 6-AAP 100 mg/kg iv, serum
[17] = after 6-AAP 100 mg/kg oral, brain
[18] = after 6-AAP 100 mg/kg oral, serum
[19] = 6-AAP and coformycin incubated in mouse liver homogenate
[20] = 6-AAP incubated in mouse liver homogenate

Compound: Nc1ncnc2c1ncn2[C@@H]1O[C@H](CO)C[C@@H]1F [2′-F-ara-ddA, 2′-fluoro-2′,3′-dideoxyadenosine]
AUC0-τ (in vivo [1]; [11]): 3.9 µM·h
AUC (in vivo [1]; [11]): 3 µM·h
AUC (in vivo [1]; [12]): 0.8 µM·h
half-life (in vivo [1]; [12]): 1.74 h
AUC/Dose (in vivo [1]; mice, after FAAddP 55 mg/kg iv, brain): 0.02 μM · h/μmol/kg
AUC/Dose (in vivo [1]; mice, after FAAddP 55 mg/kg iv, serum): 0.04 μM · h/μmol/kg
AUC/Dose (in vivo [1]; mice, after FAAddP 55 mg/kg oral, serum): 0.005 μM · h/μmol/kg
potency in protecting CD4+ATH8 cells from cytopathogenic effects of HIV-1 (HIV-1): as potent as the parent compounds

Compound: O=c1[nH]cnc2c1ncn2[C@@H]1O[C@H](CO)C[C@@H]1F [2′-F-ara-ddI, 2′-fluoro-2′,3′-dideoxyinosine]
clearance (in vivo [1]; female, NIH-Swiss, mouse, in vivo, iv): 36.3 mL/min/kg
Kp (in vivo [1]; [13]): 0.165
half-life (in vivo [1]; [13]): 0.41 h
t½ (in vivo [1]; [11]): 0.96 h
half-life (in vivo [1]; [11]): 0.68 h
AUC/Dose (in vivo [1]; [14]): 0.025 μM · h/μmol/kg
AUC (in vivo [1]; [14]): 10.1 µM·h
half-life (in vivo [1]; [14]): 0.52 h
AUC/Dose (in vivo [1]; [12]): 0.046 μM · h/μmol/kg
AUC (in vivo [1]; [12]): 6.7 µM·h
half-life (in vivo [1]; [12]): 2.92 h
AUCbrain/AUCserum ratio [2]: approximately 36%
potency in protecting CD4+ATH8 cells from cytopathogenic effects of HIV-1 (HIV-1): as potent as the parent compounds

Compound: Nc1nc2c(ncn2COCCO)c(=O)[nH]1 [Acyclovir]
oral bioavailability [3]: 15-20%

Compound: [N-]=[N+]=Nc1ncnc2c1ncn2[C@@H]1O[C@H](CO)[C@@H](O)[C@@H]1O [Compound 6-AAP, 9-(β-D-arabinofuranosyl)-6-azidopurine]
azido reduction (metabolites formed) [4]: converted to ara-A
Maximum concentration in serum, intravenous ([5]; after 6-AAP 100 mg/kg iv): 465 ± 167 µg/mL
maximum concentration in the brain, intravenous ([5]; after 6-AAP 100 mg/kg iv): 5.92 ± 0.7 µg/g
time of maximum concentration in the brain, intravenous ([5]; after 6-AAP 100 mg/kg iv): 5 min
AUC [5, 15]: 4410 ± 370 ng·h/mL
t1/2 [5, 15]: 0.77 h
AUC [5, 16]: 201100 ± 17900 ng·h/mL
t1/2 [5, 16]: 0.55 h
Maximum concentration in serum, oral ([5]; after 6-AAP 100 mg/kg oral): 7.8 ± 2.51 µg/mL
maximum concentration in the brain, oral ([5]; after 6-AAP 100 mg/kg oral): 1.87 µg/g
time of maximum concentration in serum, oral ([5]; after 6-AAP 100 mg/kg oral): 60 min
time of maximum concentration in the brain, oral ([5]; after 6-AAP 100 mg/kg oral): 30 min
re (brain) ([5]; after 6-AAP 100 mg/kg oral, AUCTissue/AUCserum): 0.30
AUC [5, 17]: 4120 ± 370 ng·h/mL
t1/2 [5, 17]: 1.29 h
AUC [5, 18]: 13770 ± 1400 ng·h/mL
t1/2 [5, 18]: 0.58 h
fold difference in the AUC values after iv dosing of 20 and 100 mg/kg ([5]; serum): 5 fold
hydrolysis by adenosine deaminase (adenosine deaminase): not hydrolysed
half-life at 100 μg/mL (in vitro; brain homogenate): 7.29 h
half-life at 100 μg/mL (in vitro; tissue homogenate): 4.9 h
stability at pH 2 ([6]; UV at 287.5 nm, 2.75 hours): did not show any significant change; also recorded: stable
stability at pH 7 ([6]; UV at 287.5 nm, 2.75 hours): did not show any significant change; also recorded: stable
stability at pH 11 ([6]; UV spectroscopy): immediately changed its UV absorption maximum; also recorded: shifted from 287.5 nm to 222.5 nm immediately
Kp (in vivo [7]; intravenous, 100 mg/kg): 0.02
Kp (in vivo [7]; iv, 100 mg/kg): 0.02
Kp (in vivo [7]; oral, 100 mg/kg): 0.3
Kp (in vivo [7]; po, 100 mg/kg): 0.33
AUC (in vivo [7]; serum, iv, 20 mg/kg): 85600 ng·h/mL
AUC (in vivo [7]; serum, iv, 100 mg/kg): 201000 ± 17900 ng·h/mL
AUC (in vivo [7]; serum, po, 100 mg/kg): 13800 ± 1400 ng·h/mL
bioavailability (in vivo [7]; serum, po, 100 mg/kg): 6.8%
Kel [8, 19]: 0.12 h⁻¹
T1/2 [8, 19]: 5.98 h
Kel ([8]; 6-AAP incubated in mouse brain homogenate): 0.01 h⁻¹
Kel [8, 20]: 0.14 h⁻¹
T1/2 [8, 20]: 4.66 h
Kel ([8]; 6-AAP incubated in mouse serum, calculated from 0 to 1 h): 0.25 h⁻¹
T1/2 ([8]; 6-AAP incubated in mouse serum, calculated from 0 to 1 h (slow initial decline)): 3.73 h

serum level, initial (declined from) ([9]; female, NIH Swiss): 18500 ± 3500 ng/mL
presence in the brain [9]: not found
AUC (in vivo [7]; in vivo, iv, 100 mg/kg): 3950 ± 200 ng·h/mL
concentration at 25 minutes (in vivo [7]; in vivo, iv, 100 mg/kg): 330 ± 250 ng/mL
T1/2 [8, 20]: 1.46 h
T1/2 ([8]; Ara-A incubated in mouse liver homogenate): 0.04 h
half-life of ara-A generated from 6-AAP alone, times greater than that of ara-A itself ([8]; mouse liver homogenate): 36 times
Compound: Nc1ncnc2c1ncn2[C@@H]1O[C@H](CO)[C@@H](O)[C@@H]1O [ara-A, 9-(β-D-arabinofuranosyl)adenine, reference compound]
half-life of ara-A [10]: four times longer
